Results published in paper PMC11602115 (Journal of Medicinal Chemistry, 2017).
pEC50, pIC50, pKd: −log10 of the molar value. Where two headings read alike, the source gives them in different places. Each block holds one compound with its values, some of them ahead of it.

Experiments:
[1] = target: T1, rat IP (Rattus norvegicus, UniProt P43253); test: HTRF cAMP assay, recombinant rat IP receptor; assay type: cell-based; set-up: expressed in transfected cells
Experimental: (§1) The new compounds were tested for functional agonist activity in a standard (Cisbio) cAMP assay using recombinant IP or DP1 receptors stably expressed in CHO-K1 cells. Clonal cell lines were derived following standard protocols, but receptor expression levels were kept to a minimum to preclude receptor reserve effects.
(§2) For development of cAMP accumulation assays, recombinant IP or DP1 receptors were stably expressed in CHO-K1 cells and clonal cell lines derived following standard protocols. Receptor expression levels were minimized to preclude receptor reserve effects. HTRF cAMP assays were performed according to the manufacturer’s instructions (Cisbio, cAMP Dynamic 2 assay kit; no. 62AM4PEJ). IP receptor-expressing cells were harvested, resuspended in assay buffer (PBS containing 1 mM IBMX and 0.2% BSA) at a density of 200 000 cells per mL, and dispensed into 384-well assay plates (PerkinElmer Proxiplate no. 6008280) at 5 μL per well. Test compounds were solubilized and serially diluted in DMSO using 5-fold dilutions to generate a 10-point dose–response curve with a top concentration of 10 μM. The samples were then further diluted in PBS to achieve a 2× stock. Diluted compounds were then transferred to a triplicate set of assay plates (5 μL per well). After a 1 h incubation at room temperature, 5 μL of cAMP-D2 reagent diluted in lysis buffer was added to each well followed by 5 μL of cryptate reagent. Plates were then incubated at room temperature for 1 h prior to reading. Time-resolved fluorescence measurements were collected on PerkinElmer Envision or BMG Pherastar microplate readers.

[2] = target: T2, human DP1 receptor (Homo sapiens, UniProt Q13258); test: HTRF cAMP assay, recombinant human DP1 receptor in CHO-K1 cells; assay type: cell-based; details: for Emax: CHO-K1, intrinsic activity relative to 1 μM PGD2, read-out: hDP1 % IA
T2 construct: expressed in transfected cells
T2 sequence (Q13258 1-359): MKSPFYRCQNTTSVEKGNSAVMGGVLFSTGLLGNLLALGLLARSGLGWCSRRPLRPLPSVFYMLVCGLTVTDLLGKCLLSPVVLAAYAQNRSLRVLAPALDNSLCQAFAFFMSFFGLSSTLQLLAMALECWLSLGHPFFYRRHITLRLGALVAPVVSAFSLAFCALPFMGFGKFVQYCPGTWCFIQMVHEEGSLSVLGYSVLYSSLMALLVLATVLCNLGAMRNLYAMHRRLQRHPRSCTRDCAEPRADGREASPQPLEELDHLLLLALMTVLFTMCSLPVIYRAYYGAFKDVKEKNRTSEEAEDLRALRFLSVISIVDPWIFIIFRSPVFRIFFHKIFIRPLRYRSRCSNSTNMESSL
Experimental: as §1, §2

[3] = Stability in rat microsome preparations; assay type: in vitro ADME; details: incubation at 37 °C, rat microsomes; read-out: rat MS, T1/2
Excerpt: (§3) Table 1 Screening Data for Selected Analogues ^a | column: human and rat MS, T1/2 (min) ^g

[4] = test system: prostaglandin receptors other than DP1; test: Panel assays of prostaglandin receptors in melanophores; assay type: cell-based
[5] = target: T3, IP (Homo sapiens, UniProt P43119); test: HTRF cAMP assay, recombinant human IP receptor stably expressed in CHO-K1 cells; assay type: cell-based; set-up: expressed in transfected cells
Experimental: as §1, §2

[6] = test system: human platelet; test: Inhibition of ADP-induced human platelet aggregation; assay type: cell-based; details: aggregation induced by 2.5 μM ADP, mean of at least two determinations
Experimental: Such aggregated and activated platelets produce vasoactive substances such as thromboxane and serotonin that may cause harmful vasoconstriction and vascular remodeling.[13] […] This secondary assay was carried out as previously described,[14] with aggregation induced by 2.5 μM ADP in the presence or absence of IP receptor agonists.

[7] = Stability in human microsome preparations; assay type: in vitro ADME; details: incubation at 37 °C, human microsomes; read-out: human MS, T1/2
Excerpt: as §3

[8] = target: T3, IP; test: Recombinant human IP receptor cAMP assay after elimination of receptor reserve (transient CHO); assay type: cell-based; set-up: expressed in transfected cells; details: following elimination of receptor reserve
Excerpt: Additional In Vitro Assays
To determine the potency and efficacy of compounds in cAMP assays in the absence of receptor reserve effects, the cDNA sequence of the human IP receptor was subqcloned into an expression plasmid containing a ubiquitin promoter in place of the more commonly used CMV promoter. The ubiquitin […]
level of receptor expression after transfection into a suitable cell line. This plasmid was transiently transfected into CHO cells using lipofectamine, following standard protocols. The quantity of transfected plasmid DNA was titrated down from 16 µg to 1 ng per transfection using empty vector as carrier DNA.

[9] = target: T4, EP3v6 (Homo sapiens, UniProt P43115); test: Melanophore dispersion assay, EP3v6; assay type: cell-based; set-up: expressed in transfected cells; host or cells: melanophores (transient, electroporation); details: melanophore dispersion assay (Gi)
T4 sequence (P43115 1-374 isoform P43115-4): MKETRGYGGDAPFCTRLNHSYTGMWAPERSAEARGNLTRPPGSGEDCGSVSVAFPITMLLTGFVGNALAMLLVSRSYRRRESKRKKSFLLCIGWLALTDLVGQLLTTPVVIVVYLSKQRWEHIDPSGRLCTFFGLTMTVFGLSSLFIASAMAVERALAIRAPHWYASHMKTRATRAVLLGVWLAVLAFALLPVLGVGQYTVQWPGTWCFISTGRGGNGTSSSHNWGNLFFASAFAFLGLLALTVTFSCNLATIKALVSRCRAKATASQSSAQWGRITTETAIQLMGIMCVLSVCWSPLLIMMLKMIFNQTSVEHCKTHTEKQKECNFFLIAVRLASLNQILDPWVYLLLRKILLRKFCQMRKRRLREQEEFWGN
Experimental: For the EP3v6 receptor functional assay, melanophores were transfected by electroporation using 20 μg of recombinant human EP3v6 receptor plasmid DNA per 400 μL of cell suspension. Transfected cells were immediately resuspended in fresh growth medium and plated in 384-well clear, polystyrene microplates. Plated cells were incubated at 27 °C for 48 h after transfection in order to achieve optimal receptor expression. To perform the assay, growth medium was removed from the assay plates and replaced with assay buffer (40 μL/well, 0.7× PBS, pH 7.3, supplemented with 20 nM melatonin to induce pigment aggregation). Following a 90 min incubation at room temperature, a 650 nm absorbance reading was collected and test compounds (10 μL per well) were transferred to the assay plates. Plates were incubated for 90 min at room temperature to allow compound-induced pigment redistribution to take place, and final absorbance reading was then collected. Test compounds were solubilized and serially diluted in DMSO, using 5-fold dilutions, to generate a 10-point dose–response curve with a top concentration of 10 μM (final assay concentration). Samples were then further diluted in assay buffer to achieve a 5× stock prior to addition to the assay plates. A SpectraMax absorbance plate reader (Molecular Devices, Inc.) was used for data collection.
(§4) Table Sup2: Data with some comparator compounds in functional assays. […]

[10] = target: EP4 (Homo sapiens, UniProt P35408); test: cAMP HTRF agonist assay, EP4; assay type: cell-based; details: cAMP HTRF agonist assay
Excerpt: (§5) Table Sup2: Data with some comparator compounds in functional assays.
(§6) Compound DP1 EP1 EP2 EP3v6 EP4
(§7) EC50, µµµµM (% I.A) EC50, µµµµM (% I.A) EC50, µµµµM (% I.A) EC50, µµµµM (% I.A) EC50, µµµµM (% I.A)
(§8) n = 3 n = 2 n = 8 n = 6 n = 6 […]

[11] = test system: primary human pulmonary arterial smooth muscle cells; test: HTRF cAMP assay in primary human pulmonary arterial smooth muscle cells; assay type: cell-based
Experimental: Additional In Vitro Assays […]
Compounds were also evaluated in HTRF cAMP assays using primary human pulmonary arterial smooth muscle cells (Cell Applications, Inc., #352Kq05a, or ThermoFisher/Gibco, #C0095C) using the same basic assay protocol outlined in the Experimental section. Cells were cultured as recommended by the suppliers, used at low passage and seeded into 384qwell assay plates at a density of 700q900 cell per well

[12] = target: EP2 (Homo sapiens, UniProt P43116); test: cAMP HTRF agonist assay, EP2; assay type: cell-based; details: cAMP HTRF agonist assay
Excerpt: as §4

[13] = target: T1, rat IP; test: Radioligand binding, rat IP ([3H]-iloprost); set-up: expressed in transfected cells; host or cells: CHO-K1 (crude membranes); details: radioligand, recombinant receptor membranes; read-out: measured Kd, rat IP
Experimental: (§9) CHO-K1 cells expressing recombinant IP receptors were harvested, washed with ice-cold phosphate buffered saline, pH 7.4 (PBS), and then centrifuged at 48 000g for 20 min at 4 °C. The resulting cell pellet was then resuspended in ice-cold PBS containing 20 mM HEPES, pH 7.4, and 0.1 mM EDTA, homogenized on ice using a Brinkman Polytron, and centrifuged (48 000g for 20 min at 4 °C). This resuspension and centrifugation process was repeated one further time. Crude membrane pellets were stored at −80 °C until used for radioligand binding assays.
(§10) Assay incubations were terminated by rapid filtration through PerkinElmer GF/C filtration plates pretreated with 0.3% PEI, under vacuum pressure using a 96-well Packard filtration apparatus, followed by multiple washes with ice-cold wash buffer (PBS containing 20 mM HEPES and 0.1 mM EDTA, pH 7.4). Plates were then dried at 45 °C for a minimum of 2 h. Finally, 25 μL of BetaScint scintillation cocktail was added to each well and plates were counted in a Packard TopCount scintillation counter. In each competition study, test compounds were dosed at 10 concentrations with triplicate determinations at each test concentration. A reference compound, typically iloprost, was included in every runset for quality control purposes.

[14] = target: dog IP (Canis lupus familiaris, UniProt A0A8I3MUB8); test: Radioligand binding, dog IP ([3H]-iloprost); details: radioligand, recombinant receptor membranes; read-out: measured Kd, dog IP
Experimental: as §9, §10

[15] = target: monkey IP; test: Radioligand binding, monkey IP ([3H]-iloprost); details: radioligand, recombinant receptor membranes; read-out: measured Kd, monkey IP
Experimental: as §9
as §10, with “concentration.” for “concentration. A reference compound, typically iloprost, was included in every runset for quality control purposes.”

[16] = target: T5, EP1 (Homo sapiens, UniProt P34995); test: cAMP HTRF agonist assay, EP1; assay type: cell-based
T5 sequence (P34995 1-402): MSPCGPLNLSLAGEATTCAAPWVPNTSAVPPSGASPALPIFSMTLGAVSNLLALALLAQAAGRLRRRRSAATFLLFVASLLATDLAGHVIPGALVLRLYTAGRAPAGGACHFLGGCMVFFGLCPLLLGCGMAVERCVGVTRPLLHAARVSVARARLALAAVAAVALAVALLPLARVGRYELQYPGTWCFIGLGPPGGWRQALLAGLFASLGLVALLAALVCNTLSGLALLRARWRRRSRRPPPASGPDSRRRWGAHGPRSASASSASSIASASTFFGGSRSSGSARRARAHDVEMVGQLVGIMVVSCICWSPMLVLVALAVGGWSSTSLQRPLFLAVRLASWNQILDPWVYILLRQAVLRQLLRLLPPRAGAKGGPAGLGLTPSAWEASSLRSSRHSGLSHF
Excerpt: as §5, §6, §7, §8

[17] = HTRF (cAMP) human DP1 receptor assay, mean of at least three determinations, read-out: EC50 hDP1
[18] = HTRF (cAMP) human IP receptor assay; mean of at least three determinations

T3 sequence (P43119 whole entry): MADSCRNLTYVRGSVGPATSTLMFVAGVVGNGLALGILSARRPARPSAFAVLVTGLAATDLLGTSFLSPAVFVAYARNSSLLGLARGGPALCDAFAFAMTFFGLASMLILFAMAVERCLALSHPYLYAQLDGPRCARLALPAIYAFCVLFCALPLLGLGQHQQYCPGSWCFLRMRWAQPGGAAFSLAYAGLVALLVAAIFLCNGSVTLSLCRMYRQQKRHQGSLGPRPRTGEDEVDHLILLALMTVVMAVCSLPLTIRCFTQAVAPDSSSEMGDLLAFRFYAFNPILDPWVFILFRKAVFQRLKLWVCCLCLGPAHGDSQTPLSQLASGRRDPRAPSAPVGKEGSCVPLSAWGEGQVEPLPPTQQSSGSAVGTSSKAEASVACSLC
T1 sequence (P43253 whole entry): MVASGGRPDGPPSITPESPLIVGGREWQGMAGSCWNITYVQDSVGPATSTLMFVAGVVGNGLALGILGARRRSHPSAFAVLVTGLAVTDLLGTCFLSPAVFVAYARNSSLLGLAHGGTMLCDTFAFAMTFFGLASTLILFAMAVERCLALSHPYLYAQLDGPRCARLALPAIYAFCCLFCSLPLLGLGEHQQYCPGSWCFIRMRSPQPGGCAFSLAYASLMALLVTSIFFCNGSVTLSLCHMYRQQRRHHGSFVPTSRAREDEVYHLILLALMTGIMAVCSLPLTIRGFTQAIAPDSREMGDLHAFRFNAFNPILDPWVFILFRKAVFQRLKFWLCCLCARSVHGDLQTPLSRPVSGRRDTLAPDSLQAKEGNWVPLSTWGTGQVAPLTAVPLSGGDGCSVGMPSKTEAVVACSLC
Chain of EP2 (P43116 whole entry): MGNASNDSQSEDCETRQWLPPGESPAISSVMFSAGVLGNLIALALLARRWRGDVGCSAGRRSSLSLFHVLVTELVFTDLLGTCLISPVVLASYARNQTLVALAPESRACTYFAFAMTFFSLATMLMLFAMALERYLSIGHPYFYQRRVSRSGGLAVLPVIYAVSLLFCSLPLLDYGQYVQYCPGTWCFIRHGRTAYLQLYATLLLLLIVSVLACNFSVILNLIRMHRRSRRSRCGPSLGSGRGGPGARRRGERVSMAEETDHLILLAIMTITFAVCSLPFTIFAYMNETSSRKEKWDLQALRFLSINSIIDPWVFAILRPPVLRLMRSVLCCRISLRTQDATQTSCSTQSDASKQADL
Chain of dog IP (A0A8I3MUB8 1-381): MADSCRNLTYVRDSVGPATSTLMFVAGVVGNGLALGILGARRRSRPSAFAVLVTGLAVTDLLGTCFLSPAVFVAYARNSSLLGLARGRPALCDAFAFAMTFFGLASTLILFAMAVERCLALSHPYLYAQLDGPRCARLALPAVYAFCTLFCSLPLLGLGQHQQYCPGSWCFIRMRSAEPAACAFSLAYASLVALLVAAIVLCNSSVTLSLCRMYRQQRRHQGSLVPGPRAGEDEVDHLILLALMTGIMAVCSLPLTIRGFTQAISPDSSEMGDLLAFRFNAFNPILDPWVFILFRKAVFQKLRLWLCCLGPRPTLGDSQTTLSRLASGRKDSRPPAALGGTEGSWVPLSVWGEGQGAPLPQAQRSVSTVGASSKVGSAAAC
Chain of EP4 (P35408 whole entry): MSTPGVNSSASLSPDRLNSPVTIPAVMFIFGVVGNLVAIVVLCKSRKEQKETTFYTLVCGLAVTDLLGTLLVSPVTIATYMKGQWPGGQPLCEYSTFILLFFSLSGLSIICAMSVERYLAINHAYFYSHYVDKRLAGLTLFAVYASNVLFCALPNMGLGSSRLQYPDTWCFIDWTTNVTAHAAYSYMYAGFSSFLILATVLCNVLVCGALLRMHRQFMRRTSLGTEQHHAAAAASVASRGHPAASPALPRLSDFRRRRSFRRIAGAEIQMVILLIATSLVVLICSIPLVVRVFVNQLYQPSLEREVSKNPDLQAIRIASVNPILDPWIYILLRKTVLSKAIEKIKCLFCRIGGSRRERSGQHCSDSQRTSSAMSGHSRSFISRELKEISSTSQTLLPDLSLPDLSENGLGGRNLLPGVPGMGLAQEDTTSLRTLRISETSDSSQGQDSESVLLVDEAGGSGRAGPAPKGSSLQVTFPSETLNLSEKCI

pEC50 ([1]; HTRF (cAMP) rat IP receptor assay, mean of at least three determinations): 6.44 | Emax ([1]; read-out: rIP % IA): 89% | Emax [2]: 59% | pEC50 [2, 17]: 6.45 | half-life [3]: > 1 h | Emax ([5]; CHO-K1; read-out: hIP % IA): 77% | pEC50 [5, 18]: 7.68 | pIC50 [6]: 7.60 | half-life [7]: > 1 h
Compound: O=C(O)COC[C@H]1CC[C@H](COC(=O)N(c2ccccc2)c2ccccc2)CC1 [5a, 2-(((1r,4r)-4-((Diphenylcarbamoyloxy)methyl)cyclohexyl)methoxy)acetic Acid]
activity at prostaglandin receptors other than DP1 [4]: no activity

Compound: CC(C)N(CCCCOCC(=O)O)c1cnc(-c2ccccc2)c(-c2ccccc2)n1 [compound 2, MRE269]
Emax [2]: 80% | pEC50 [2, 17]: 6.81 | DP1 % I.A ([2]; cAMP HTRF agonist assay (Gs), Table Sup2): 80% | Efficacy (% vs. Iloprost) [95% CI], recombinant IP receptor cAMP [8]: 48 [43, 53] % | pEC50 ([8]; n = 9, read-out: EC50 [95% CI], recombinant IP receptor cAMP): 6.82 | pEC50 [9]: < 5.00 | pEC50 [10]: < 5.00 | Emax ([5]; CHO-K1, read-out: hIP % IA): 60% | pEC50 [5, 18]: 7.66 | Efficacy (% vs. Iloprost) [95% CI], primary human PASMC cAMP [11]: 41 [33, 49] % | pEC50 ([11]; Homo sapiens, PASMC, n = 8, read-out: EC50 [95% CI], primary human PASMC cAMP): 6.74 | pEC50 [12]: < 5.00 | pIC50 [6]: 6.54

Compound: [^3H]-iloprost [reference compound]
pKd [13]: 8.15 | pKd [14]: 7.81 | pKd [15]: 7.92

pEC50 ([2]; cAMP HTRF agonist assay (Gs), Table Sup2, read-out: DP1 EC50): 6.28 | pEC50 [16]: 7.29 | EP1 % I.A [16]: 92% | EP3v6 % I.A [9]: 100% | EP2 % I.A [12]: 84%
Compound: CCCCC[C@H](O)/C=C/[C@H]1[C@H](O)CC(=O)[C@@H]1C/C=C\CCCC(=O)O [PGE2]
